Laboratory results taken from the OligoGym collection.
“And” between values parts separate entries of the source, which are not always exact repeats. Equal values may be shown once. These antisense oligonucleotides have a phosphorothioate backbone; sugars and methylation of C are not fully specified.

Assays:
Conditions in all cases: ASO
MAP2K4 = target: MAP2K4
VCAM1 = target: VCAM1
TNF = target: TNF
BIRC3 = target: BIRC3
Also: test concentration or dose not given here.

Sequence: GATATCAATCGACATACATG
- remaining target (mRNA or protein) (fraction of control) (MAP2K4): 0.83

Sequence: ACGACCATCTTCCC
- remaining target (mRNA or protein) (fraction of control) (VCAM1): 0.51

Sequence: TGATCCACTCCCCCCTCCACT
- remaining target (mRNA or protein) (fraction of control) (TNF): 0.06 and 0.1

Sequence: GCACTTTTATTTCTTAGA
- remaining target (mRNA or protein) (fraction of control) (BIRC3): 0.3

Sequence: ACTTTCCCAGCAGGTATTTGG
- remaining target (mRNA or protein) (fraction of control) (TNF): 0.88

Sequence: TTTAAACACTAGCGATTATG
- remaining target (mRNA or protein) (fraction of control) (MAP2K4): ≥ 1

Sequence: AAAGCTTTAAGTCCCCCGCCC
- remaining target (mRNA or protein) (fraction of control) (TNF): 0.25

Sequence: GGCTCGGAGCCGCCATTGTT
- remaining target (mRNA or protein) (fraction of control) (MAP2K4): 0.56

Sequence: TTCTTGCCCTCCCTCCCTACT
- remaining target (mRNA or protein) (fraction of control) (TNF): 0.12

Sequence: CCACCACTCATCTCG
- remaining target (mRNA or protein) (fraction of control) (VCAM1): 0.26

Sequence: GATCCTCATCTGGTCCAATG
- remaining target (mRNA or protein) (fraction of control) (MAP2K4): 0.6

Sequence: TTTGACATCATCACTGTT
- remaining target (mRNA or protein) (fraction of control) (BIRC3): ≥ 1

Sequence: TTTAAGCAATCTTGCTATGGC
- remaining target (mRNA or protein) (fraction of control) (VCAM1): 0.81

Sequence: CCTATTCCCTTTCCTCCCAAA
- remaining target (mRNA or protein) (fraction of control) (TNF): 0.14

Sequence: CATTTCTTTTCCAAGCGAAC
- remaining target (mRNA or protein) (fraction of control) (TNF): 0.94

Sequence: TAGAAATGAATTTAAGATGT
- remaining target (mRNA or protein) (fraction of control) (MAP2K4): ≥ 1

Sequence: CCCATTCACGAGGCCACC
- remaining target (mRNA or protein) (fraction of control) (VCAM1): 0.11

Sequence: GAAGCCTCCCCGCTCTTTGCC
- remaining target (mRNA or protein) (fraction of control) (TNF): 0.25

Sequence: CTTTGACTTCTTGCTCACAGC
- remaining target (mRNA or protein) (fraction of control) (VCAM1): 0.07

Sequence: AAATCTTGATTTGCTCTG
- remaining target (mRNA or protein) (fraction of control) (BIRC3): 0.93

Sequence: CCTTCGATGTATAGGACA
- remaining target (mRNA or protein) (fraction of control) (BIRC3): ≥ 1

Sequence: ATGCTGCTGACGGCCGGGTG
- remaining target (mRNA or protein) (fraction of control) (MAP2K4): 0.76

Sequence: AGAGCCACGGAAATATCC
- remaining target (mRNA or protein) (fraction of control) (BIRC3): 0.91

Sequence: AACACCAATCTTATTGCACA
- remaining target (mRNA or protein) (fraction of control) (MAP2K4): 0.98

Sequence: TTAACGGAATTTAGACTC
- remaining target (mRNA or protein) (fraction of control) (BIRC3): ≥ 1

Sequence: GTCTTTGTTGTTTTCTCTTCC
- remaining target (mRNA or protein) (fraction of control) (VCAM1): 0.41

Sequence: AGCAGGAAAAGTGGAATA
- remaining target (mRNA or protein) (fraction of control) (BIRC3): ≥ 1

Sequence: TCCACTCCCCCGATCCACTCA
- remaining target (mRNA or protein) (fraction of control) (TNF): 0.11

Sequence: GGGTCTCAGTATGCTGCC
- remaining target (mRNA or protein) (fraction of control) (BIRC3): 0.79

Sequence: CCCAGGCATTTTAAGTTGCTG
- remaining target (mRNA or protein) (fraction of control) (VCAM1): 0.33

Sequence: TTCAGTGGCATTCAATCA
- remaining target (mRNA or protein) (fraction of control) (BIRC3): 0.77

Sequence: CTTAGAGGTACGTAAAAT
- remaining target (mRNA or protein) (fraction of control) (BIRC3): 0.71

Sequence: GTTCATCACAAAAGAGCAGG
- remaining target (mRNA or protein) (fraction of control) (MAP2K4): 0.89

Sequence: CCCTTATTTGTGTCCC
- remaining target (mRNA or protein) (fraction of control) (VCAM1): 0.37

Sequence: CTTGAGCTCAGCTCCCTCAGG
- remaining target (mRNA or protein) (fraction of control) (TNF): 0.45

Sequence: ATGGAGGATGATGGCTTGCT
- remaining target (mRNA or protein) (fraction of control) (MAP2K4): 0.83

Sequence: TAGCAGCGATATCAATCGAC
- remaining target (mRNA or protein) (fraction of control) (MAP2K4): 0.55

Sequence: CTGGTCCCTTGGTGTCCTCGC
- remaining target (mRNA or protein) (fraction of control) (TNF): 0.69

Sequence: TCATCTCCTGGGCTGTCT
- remaining target (mRNA or protein) (fraction of control) (BIRC3): 0.6

Sequence: TATCACATCAGTAATCTATT
- remaining target (mRNA or protein) (fraction of control) (MAP2K4): ≥ 1

Sequence: AGACCTGGACCAGTGATGGC
- remaining target (mRNA or protein) (fraction of control) (MAP2K4): 0.6

Sequence: GGTCAACTTCTCCAGGCT
- remaining target (mRNA or protein) (fraction of control) (BIRC3): 0.35

Sequence: TTACCATTGACATAAAGTGTT
- remaining target (mRNA or protein) (fraction of control) (VCAM1): 0.52

Sequence: GAAACCAAATTAGGATAA
- remaining target (mRNA or protein) (fraction of control) (BIRC3): 0.88

Sequence: GCCTCTTGTAACAGTGCTGA
- remaining target (mRNA or protein) (fraction of control) (MAP2K4): 0.47

Sequence: AGAGCCACAATTCCCTTTCTA
- remaining target (mRNA or protein) (fraction of control) (TNF): 0.2

Sequence: GCTGGAAGACTCCTCCCAGGT
- remaining target (mRNA or protein) (fraction of control) (TNF): 0.35

Sequence: TAAAACCCTTCACAGAAG
- remaining target (mRNA or protein) (fraction of control) (BIRC3): ≥ 1

Sequence: ATTTGGAATTCCCAGAGTGGG
- remaining target (mRNA or protein) (fraction of control) (TNF): ≥ 1

Sequence: AGTGAGTTCCGAAAGCCCATT
- remaining target (mRNA or protein) (fraction of control) (TNF): 0.94

Sequence: ATTTGTTACTGAAGAAGG
- remaining target (mRNA or protein) (fraction of control) (BIRC3): ≥ 1

Sequence: CCTGTGTGTGCCTGGGAGGG
- remaining target (mRNA or protein) (fraction of control) (VCAM1): 0.88

Sequence: CTTCTTCCCTGTTCCCCTGGC
- remaining target (mRNA or protein) (fraction of control) (TNF): 0.2

Sequence: AGCAAGCCACTCTGTCTC
- remaining target (mRNA or protein) (fraction of control) (BIRC3): 0.5

Sequence: GGTTCCGTAAGGAAGGCTGG
- remaining target (mRNA or protein) (fraction of control) (TNF): 0.94

Sequence: CGATGCAGATACCGCGGAGT
- remaining target (mRNA or protein) (fraction of control) (VCAM1): 0.37

Sequence: GGTATTCAGCTCCTGAAG
- remaining target (mRNA or protein) (fraction of control) (VCAM1): 0.69

Sequence: CTCTCATCTTGATGGC
- remaining target (mRNA or protein) (fraction of control) (VCAM1): 0.55

Sequence: CATCTTCCCAGGCAT
- remaining target (mRNA or protein) (fraction of control) (VCAM1): 0.45

Sequence: GCATGGCTTTGCTTTTAT
- remaining target (mRNA or protein) (fraction of control) (BIRC3): ≥ 1

Sequence: CCCGGCATCTTTACAAAACC
- remaining target (mRNA or protein) (fraction of control) (VCAM1): 0.45

Sequence: GCCAGTGAGGCCCG
- remaining target (mRNA or protein) (fraction of control) (VCAM1): 0.35

Sequence: TGTAGTGCTACCTCTTTT
- remaining target (mRNA or protein) (fraction of control) (BIRC3): 0.31

Sequence: CCCAGGCATTTTAAG
- remaining target (mRNA or protein) (fraction of control) (VCAM1): 0.78

Sequence: CTGGTCTTTCCACGTCCCATT
- remaining target (mRNA or protein) (fraction of control) (TNF): 0.17

Sequence: CCCTTAGGTTTCCCAGCAAGC
- remaining target (mRNA or protein) (fraction of control) (TNF): 0.38

Sequence: ACCTGTGTGTGCCTGGGAGGG
- remaining target (mRNA or protein) (fraction of control) (VCAM1): 0.26

Sequence: GGCCACATTGGGAAAGTTGC
- remaining target (mRNA or protein) (fraction of control) (VCAM1): 0.29
